In PMC11277489, “Novel Piperazine Derivatives of Vindoline as Anticancer Agents” (International Journal of Molecular Sciences, 2024):
Read-outs that look alike come from different tables or passages of the source.

How the values were obtained:
SK-MEL-2 = test: NCI60 one-dose screen (10 μM), Melanoma; assay type: cell-based; settings: Homo sapiens
HT29 = test: NCI60 one-dose screen (10 μM), Colon Cancer; assay type: cell-based; settings: Homo sapiens
ACHN = test: NCI60 one-dose screen (10 μM), Renal Cancer; assay type: cell-based; settings: Homo sapiens, read-out: Growth percent rate
MCF7 = test: NCI60 one-dose screen (10 μM), Breast Cancer; assay type: cell-based; settings: Homo sapiens
A549/ATCC = test: NCI60 one-dose screen (10 μM), Non-small Cell Lung Cancer; assay type: cell-based; settings: Homo sapiens
MDA-MB-435 = test: NCI60 one-dose screen (10 μM), Melanoma; assay type: cell-based; settings: Homo sapiens
CCRF-CEM = test: NCI60 one-dose screen (10 μM), Leukemia; assay type: cell-based; settings: Homo sapiens, read-out: Growth percent rate
OVCAR-4 = test: NCI60 one-dose screen (10 μM), Ovarian Cancer; assay type: cell-based; settings: Homo sapiens
IGROV1 = test: NCI60 one-dose screen (10 μM), Ovarian Cancer; assay type: cell-based; settings: Homo sapiens
[1] = system: 60 human tumor cell lines (NCI60); test: NCI60 one-dose screen (10 μM), whole panel; assay type: cell-based; settings: for activity at 10 µM: read-out: Growth percent rate, Mean
A498 = test: NCI60 one-dose screen (10 μM), Renal Cancer; assay type: cell-based; settings: Homo sapiens
CAKI-1 = test: NCI60 one-dose screen (10 μM), Renal Cancer; assay type: cell-based; settings: Homo sapiens
SF-268 = test: NCI60 one-dose screen (10 μM), CNS Cancer; assay type: cell-based; settings: Homo sapiens
HOP-62 = test: NCI60 one-dose screen (10 μM), Non-small Cell Lung Cancer; assay type: cell-based; settings: Homo sapiens
M14 = test: NCI60 one-dose screen (10 μM), Melanoma; assay type: cell-based; settings: Homo sapiens
SF-295 = test: NCI60 one-dose screen (10 μM), CNS Cancer; assay type: cell-based; settings: Homo sapiens
OVCAR-3 = test: NCI60 one-dose screen (10 μM), Ovarian Cancer; assay type: cell-based; settings: Homo sapiens
RPMI-8226 = test: NCI60 one-dose screen (10 μM), Leukemia; assay type: cell-based; settings: Homo sapiens
K-562 = test: NCI60 one-dose screen (10 μM), Leukemia; assay type: cell-based; settings: Homo sapiens
HL-60(TB) = test: NCI60 one-dose screen (10 μM), Leukemia; assay type: cell-based; settings: Homo sapiens
HCC-2998 = test: NCI60 one-dose screen (10 μM), Colon Cancer; assay type: cell-based; settings: Homo sapiens
NCI-H23 = test: NCI60 one-dose screen (10 μM), Non-small Cell Lung Cancer; assay type: cell-based; settings: Homo sapiens
MOLT-4 = test: NCI60 one-dose screen (10 μM), Leukemia; assay type: cell-based, human; settings: Homo sapiens
OVCAR-8 = test: NCI60 one-dose screen (10 μM), Ovarian Cancer; assay type: cell-based; settings: Homo sapiens
SNB-75 = test: NCI60 one-dose screen (10 μM), CNS Cancer; assay type: cell-based, human; settings: Homo sapiens
HCT-116 = test: NCI60 one-dose screen (10 μM), Colon Cancer; assay type: cell-based; settings: Homo sapiens
SN12C = test: NCI60 one-dose screen (10 μM), Renal Cancer; assay type: cell-based; settings: Homo sapiens, read-out: Growth percent rate
DU-145 = test: NCI60 one-dose screen (10 μM), Prostate Cancer; assay type: cell-based; settings: Homo sapiens
SNB-19 = test: NCI60 one-dose screen (10 μM), CNS Cancer; assay type: cell-based; settings: Homo sapiens
NCI-H522 = test: NCI60 one-dose screen (10 μM), Non-small Cell Lung Cancer; assay type: cell-based; settings: Homo sapiens
NCI-H460 = test: as above; assay type: cell-based; settings: Homo sapiens
UACC-257 = test: NCI60 one-dose screen (10 μM), Melanoma; assay type: cell-based; settings: Homo sapiens
MALME-3M = test: NCI60 one-dose screen (10 μM), Melanoma; assay type: cell-based; settings: Homo sapiens, read-out: Growth percent rate
SW-620 = test: NCI60 one-dose screen (10 μM), Colon Cancer; assay type: cell-based; settings: Homo sapiens
TK-10 = test: NCI60 one-dose screen (10 μM), Renal Cancer; assay type: cell-based; settings: Homo sapiens
SK-MEL-28 = test: NCI60 one-dose screen (10 μM), Melanoma; assay type: cell-based; settings: Homo sapiens
KM12 = test: NCI60 one-dose screen (10 μM), Colon Cancer; assay type: cell-based, human; settings: Homo sapiens
NCI-H322M = test: NCI60 one-dose screen (10 μM), Non-small Cell Lung Cancer; assay type: cell-based; settings: Homo sapiens, read-out: Growth percent rate
U251 = test: NCI60 one-dose screen (10 μM), CNS Cancer; assay type: cell-based; settings: Homo sapiens
786–0 = test: NCI60 one-dose screen (10 μM), Renal Cancer; assay type: cell-based; settings: Homo sapiens
SK-MEL-5 = test: NCI60 one-dose screen (10 μM), Melanoma; assay type: cell-based, human; settings: Homo sapiens
EKVX = test: NCI60 one-dose screen (10 μM), Non-small Cell Lung Cancer; assay type: cell-based; settings: Homo sapiens, read-out: Growth percent rate
[2] = 10 μM, Non-small Cell Lung Cancer

CC[C@]12C=CCN3CC[C@@]4(c5ccc(OC)cc5N(C)[C@H]4[C@@](O)(C(=O)OC)[C@@H]1OC(=O)CCCN1CCN(C(c4ccc(F)cc4)c4ccc(F)cc4)CC1)[C@@H]32 [Compound 25]
activity at 10 µM (SK-MEL-2; SK-MEL-2, read-out: Growth percent rate): -89.5%
activity at 10 µM (HT29; HT-29, read-out: Growth percent rate): -83.9%
activity at 10 µM (ACHN): -69.4%
activity at 10 µM (MCF7; MCF7, read-out: Growth percent rate): -88.2%
activity at 10 µM (A549/ATCC; A549, read-out: Growth percent rate): -65.4%
activity at 10 µM (MDA-MB-435; MDA-MB-435, read-out: Growth percent rate): -78.7%
activity at 10 µM (CCRF-CEM): -29.5%
activity at 10 µM (OVCAR-4; OVCAR-4, read-out: Growth percent rate): -41.5%
activity at 10 µM (IGROV1; IGROV-1, read-out: Growth percent rate): -77%
growth rate ([1]; 10 μM one-dose, on almost all tested cancer types and cell lines, negative = lethality): < −60%
activity at 10 µM ([1]; Homo sapiens): -79.9%
activity at 10 µM (A498; A498, read-out: Growth percent rate): -97.2%
activity at 10 µM (CAKI-1; CAKI-1, read-out: Growth percent rate): -86.2%
activity at 10 µM (SF-268; SF-268, read-out: Growth percent rate): -81.9%
activity at 10 µM (HOP-62; HOP-62, read-out: Growth percent rate): -77.2%
activity at 10 µM (M14; M14, read-out: Growth percent rate): -94.8%
activity at 10 µM (SF-295; SF-295, read-out: Growth percent rate): -91%
activity at 10 µM (OVCAR-3; OVCAR-3, read-out: Growth percent rate): -83%
activity at 10 µM (RPMI-8226; RPMI-8226, read-out: Growth percent rate): -50.1%
activity at 10 µM (K-562; K562, read-out: Growth percent rate): -1.7%
activity at 10 µM (HL-60(TB); HL-60, read-out: Growth percent rate): -56.2%
activity at 10 µM (HCC-2998; HCC 2998, read-out: Growth percent rate): -97.2%
activity at 10 µM (NCI-H23; NCI-H23, read-out: Growth percent rate): -92.7%
activity at 10 µM (MOLT-4; MOLT-4, read-out: Growth percent rate): -31.9%
activity at 10 µM (OVCAR-8; OVCAR-8, read-out: Growth percent rate): -69.3%
activity at 10 µM (SNB-75; SNB-75, read-out: Growth percent rate): -86.4%
activity at 10 µM (HCT-116; HCT-116, read-out: Growth percent rate): -98.6%
activity at 10 µM (SN12C): -95%
activity at 10 µM (DU-145; DU-145, read-out: Growth percent rate): -94.4%
activity at 10 µM (SNB-19; SNB-19, read-out: Growth percent rate): -93.6%
activity at 10 µM (NCI-H522; NCI-H522, read-out: Growth percent rate): -88.2%
activity at 10 µM (NCI-H460; NCI-H460, read-out: Growth percent rate): -70.4%
activity at 10 µM (UACC-257; UACC-257, read-out: Growth percent rate): -78.2%
activity at 10 µM (MALME-3M; Malme-3M): -91%
activity at 10 µM (SW-620; SW-620, read-out: Growth percent rate): -78.5%
activity at 10 µM (TK-10; TK-10, read-out: Growth percent rate): -90.4%
activity at 10 µM (SK-MEL-28; SK-MEL-28, read-out: Growth percent rate): -96.5%
activity at 10 µM (KM12; KM12, read-out: Growth percent rate): -96.9%
activity at 10 µM (NCI-H322M): -71.7%
activity at 10 µM (U251; U-251, read-out: Growth percent rate): -79%
activity at 10 µM (786–0; 786-0, read-out: Growth percent rate): -96.4%
activity at 10 µM (SK-MEL-5; SK-MEL-5, read-out: Growth percent rate): -99.6%
activity at 10 µM (EKVX): -89.8%

CC[C@]12C=CCN3CC[C@@]4(c5ccc(OC)cc5N(C)[C@H]4[C@@](O)(C(=O)OC)[C@@H]1OC(=O)CCCN1CCN(C(=O)c4ccco4)CC1)[C@@H]32 [Compound 26]
activity at 10 µM (SK-MEL-2; 10 μM, SK-MEL-2, Melanoma, read-out: Growth percent rate): 109%
activity at 10 µM (HT29; HT-29, 10 μM, HT29, Colon Cancer, read-out: Growth percent rate): 103%
activity at 10 µM (ACHN; 10 μM, Renal Cancer): 103%
activity at 10 µM (MCF7; 10 μM, MCF7, Breast Cancer, read-out: Growth percent rate): 88.7%
activity at 10 µM (A549/ATCC; 10 μM, A549/ATCC, Non-small Cell Lung Cancer, read-out: Growth percent rate): 92.7%
activity at 10 µM (MDA-MB-435; 10 μM, MDA-MB-435, Melanoma, read-out: Growth percent rate): 104%
activity at 10 µM (CCRF-CEM; 10 μM, Leukemia): 103%
activity at 10 µM (OVCAR-4; 10 μM, OVCAR-4, Ovarian Cancer, read-out: Growth percent rate): 94%
activity at 10 µM (IGROV1; IGROV-1, 10 μM, IGROV1, Ovarian Cancer, read-out: Growth percent rate): 109%
activity at 10 µM ([1]; 10 μM, mean over 60 human cancer cell lines): 96.8%
activity at 10 µM (A498; 10 μM, A498, Renal Cancer, read-out: Growth percent rate): 107%
activity at 10 µM (CAKI-1; 10 μM, CAKI-1, Renal Cancer, read-out: Growth percent rate): 79.8%
activity at 10 µM (SF-268; 10 μM, SF-268, CNS Cancer, read-out: Growth percent rate): 97.3%
activity at 10 µM (HOP-62; 10 μM, HOP-62, Non-small Cell Lung Cancer, read-out: Growth percent rate): 107%
activity at 10 µM (M14; 10 μM, M14, Melanoma, read-out: Growth percent rate): 101%
activity at 10 µM (SF-295; 10 μM, SF-295, CNS Cancer, read-out: Growth percent rate): 89.5%
activity at 10 µM (OVCAR-3; 10 μM, OVCAR-3, Ovarian Cancer, read-out: Growth percent rate): 121%
activity at 10 µM (RPMI-8226; 10 μM, RPMI-8226, Leukemia, read-out: Growth percent rate): 69.2%
activity at 10 µM (K-562; K562, 10 μM, K-562, Leukemia, read-out: Growth percent rate): 76.7%
activity at 10 µM (HL-60(TB); 10 μM, HL-60(TB), Leukemia, read-out: Growth percent rate): 93.8%
activity at 10 µM (HCC-2998; 10 μM, HCC-2998, Colon Cancer, read-out: Growth percent rate): 106%
activity at 10 µM (NCI-H23; 10 μM, NCI-H23, Non-small Cell Lung Cancer, read-out: Growth percent rate): 109%
activity at 10 µM (MOLT-4; 10 μM, MOLT-4, Leukemia, read-out: Growth percent rate): 77.3%
activity at 10 µM (OVCAR-8; 10 μM, OVCAR-8, Ovarian Cancer, read-out: Growth percent rate): 104%
activity at 10 µM (SNB-75; 10 μM, SNB-75, CNS Cancer, read-out: Growth percent rate): 68.3%
activity at 10 µM (HCT-116; 10 μM, HCT-116, Colon Cancer, read-out: Growth percent rate): 104%
activity at 10 µM (SN12C; 10 μM, Renal Cancer): 103%
activity at 10 µM (DU-145; 10 μM, DU-145, Prostate Cancer, read-out: Growth percent rate): 105%
activity at 10 µM (SNB-19; 10 μM, SNB-19, CNS Cancer, read-out: Growth percent rate): 94.4%
activity at 10 µM (NCI-H522; 10 μM, NCI-H522, Non-small Cell Lung Cancer, read-out: Growth percent rate): 91.6%
activity at 10 µM (NCI-H460; 10 μM, NCI-H460, Non-small Cell Lung Cancer, read-out: Growth percent rate): 112%
activity at 10 µM (UACC-257; 10 μM, UACC-257, Melanoma, read-out: Growth percent rate): 101%
activity at 10 µM (MALME-3M; 10 μM, MALME-3M, Melanoma): 102%
activity at 10 µM (SW-620; 10 μM, SW-620, Colon Cancer, read-out: Growth percent rate): 112%
activity at 10 µM (TK-10; 10 μM, TK-10, Renal Cancer, read-out: Growth percent rate): 104%
activity at 10 µM (SK-MEL-28; 10 μM, SK-MEL-28, Melanoma, read-out: Growth percent rate): 105%
activity at 10 µM (KM12; 10 μM, KM12, Colon Cancer, read-out: Growth percent rate): 108%
activity at 10 µM (NCI-H322M; [2]): 108%
activity at 10 µM (U251; U-251, 10 μM, U251, CNS Cancer, read-out: Growth percent rate): 93.4%
activity at 10 µM (786–0; 10 μM, 786-0, Renal Cancer, read-out: Growth percent rate): 94.2%
activity at 10 µM (SK-MEL-5; 10 μM, SK-MEL-5, Melanoma, read-out: Growth percent rate): 75.6%
activity at 10 µM (EKVX; [2]): 87.8%
